Measured values: US20240317711A1, “AURKA SELECTIVE DEGRADATION INDUCING COMPOUND” (UPPTHERA INC., priority 2021, published 2024)

Molecular target: T1, AURKA (Homo sapiens, UniProt O14965)
T1 construct: An MDA-MB-231 cell line was purchased from the Korea Cell Line Bank; endogenous in cells; host or cells: MDA-MB-231
T1 sequence (O14965 1-403): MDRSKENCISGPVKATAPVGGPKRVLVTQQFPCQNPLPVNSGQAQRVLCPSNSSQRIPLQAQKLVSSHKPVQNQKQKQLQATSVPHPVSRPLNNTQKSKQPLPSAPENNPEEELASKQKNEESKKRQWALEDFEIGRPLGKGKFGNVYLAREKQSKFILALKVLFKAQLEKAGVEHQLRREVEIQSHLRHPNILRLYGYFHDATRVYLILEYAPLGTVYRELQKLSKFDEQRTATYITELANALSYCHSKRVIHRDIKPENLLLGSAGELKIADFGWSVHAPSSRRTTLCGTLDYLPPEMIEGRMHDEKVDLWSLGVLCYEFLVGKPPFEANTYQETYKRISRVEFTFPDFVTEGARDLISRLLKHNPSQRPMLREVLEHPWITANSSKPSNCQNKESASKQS
Assay: Western blotting of AURKA degradation after 24 hours of compound treatment of MDA-MB-231 cell line
Format: cell-based
Details: compound 0.1 μM, MDA-MB-231 cells, Western blot
Text: An MDA-MB-231 cell line was purchased from the Korea Cell Line Bank. The passage of cultured cells was maintained within P50.
For cell counting, a cell counter (Catalog #AMQAX1000) from Thermo and a 0.4% Trypan blue solution were used.
For cell culture, there were used RPMI (Gibco, Cat. No. 22400-089; Lot. No. 2323633), FBS (Gibco, Cat. No. 16000044; Lot. No. 2454168P), Penicillin/Streptomycin (PS) (Gibco, Cat. No. 15140-122; Lot. No. 2321150), 100 mm culture plate (SPL, Cat. No. 20100), 6-well culture plate (SPL, Cat. No. 30006), PBS pH7.4 (Gibco, Cat. No. 10010-023; Lot. No. 2380329), counting chamber (Hematocytometer) (Hirschmann, Cat. No. 8100204), and 0.4% trypan blue solution (DYNEBIO, Cat. No. CBT3710; Lot. No. 20211201).
3×10^5 cells were seeded in each well of a 12-well plate (SPL), and the cells were cultured in a total culture medium volume of 1 mL. […]
Next, a standard curve was obtained using the BCA assay and the protein mass in the lysate was quantified by substituting the obtained standard curve. The mixture was incubated at 37° C. for 30 minutes using 20 μL of a standard or sample solution and 200 μL of a BCA or Bradford solution, and absorbance was measured at 562 nm. […]

AURKA protein degradation activity: ≥ 95%
Structure (SMILES): O=C1CCC(N2C(=O)c3cccc(NCCCCCCN4CCN(C(=O)Cc5ccc(Nc6ncc(F)c(Nc7ccc(C(=O)Nc8ccccc8Cl)cc7)n6)cc5)CC4)c3C2=O)C(=O)N1 (stereo not shown) [Compound 14]
